Measured values: US20080070958A1, “Therapeutic Agent for Keratoconjunctival Disorder” (priority 2004, published 2008)

Test system: corneal damage in corneal disorder models
Assay: Test for therapeutic effect on corneal damage (rat corneal disorder model, exorbital lacrimal gland removal, fluorescein staining score)
Format: in vivo, male SD rats
Settings: for Improvement ratio (%): {(control)-(compound)}/{(control)-(normal eye)}x100; for Mean value of total scores: fluorescein staining score of cornea (upper, middle, lower parts, each 0-3), mean of 8 eyes
Method: Test for Therapeutic Effect on Corneal Damage Using male SD rats, in accordance with the method of Fujihara et al. (Invest. Ophthalmol. Vis. Sci. 42 (1): 96-100 (2001)), corneal disorder models were produced. After the production of the corneal disorder models, the improvement ratio of a corneal damage was evaluated according to the method of Murakami et al. (Journal of the eye 21 (1): 87-90 (2004)). Male SD rats were systemically anesthetized by an administration of Nembutal. Subsequently the exorbital lacrimal gland of each rat was removed and a corneal damage was induced over a period of 2 months. Then, E-4-[4-(5-methyl-2-phenyl-4-oxazolylmethoxy) benzyloxyimino]-4-phenylbutyric acid (Compound A), Z-2-[4-(5-methyl-2-phenyl-4-oxazolylmethoxy) benzyloxyimino]-2-(4-phenoxyphenyl) acetic acid (Compound B), 2-[2-propyl-3-[3-[2-ethyl-4-(4-fluorophenyl)-5-hydroxyphenoxy]propoxy]phenoxy]sodium benzoate (Compound C) or 2(S)-methoxy-3-[4-[3-(4-phenoxyphenoxy)propoxy]phenyl] propionic acid (Compound D) was administered to the rats as follows. A physiological saline solution of Compound A (0.006%) was instilled into both eyes 6 times a day for 7 days (one group consisting of 4 animals, 8 eyes). A physiological saline solution of Compound B (0.006%) was instilled into both eyes 6 times a day for 7 days (one group consisting of 4 animals, 8 eyes). A physiological saline solution of Compound C (0.006%) was instilled into both eyes 6 times a day for 7 days (one group consisting of 4 animals, 8 eyes). A phosphate-buffered saline (PBS) solution of Compound D (0.002%) was instilled into both eyes 6 times a day for 7 days (one group consisting of 4 animals, 8 eyes). In a control group, physiological saline or PBS was instilled into both eyes 6 times a day for 7 days (one group consisting of 4 animals, 8 eyes). Seven days after the start of instillation, the damaged parts of the cornea were stained with fluorescein. For each of the upper, middle and lower parts of the cornea, the degree of fluorescein staining was evaluated by scoring according to the criteria shown below and the mean value of the total scores for each of the above-mentioned parts was calculated. • 0: No punctate staining • 1: Scattered staining (punctate staining being separated) • 2: Moderate staining (a part of punctuate staining being adjacent) • 3: Heavy staining (punctate staining being barely separated) (Results) By taking the mean value of the total scores for the control group (physiological saline or PBS) as a standard (improvement ratio: 0%), the calculation was carried out. Each of the improvement ratios for the Compound A administration group, the Compound B administration group and the Compound C administration group is shown in Table 1 and the improvement ratio for the Compound D administration group is shown in Table 2. The mean value of the scores is a mean of those of 8 cases, respectively. The improvement ratio was calculated according to the following equation. Improvement ratio (%)={(control)−(the present compound)}/damage degree×100 Damage degree={(control)−(normal eye)}

[1] = 0.006% in physiological saline instilled into both eyes 6 times a day for 7 days, vs physiological saline control (0%)
[2] = 0.006% in physiological saline instilled into both eyes 6 times a day for 7 days, normal eye 3.0, saline control 6.1

Compound	Improvement ratio (%) [1] [%]	Mean value of total scores [2]	Improvement ratio (%) (0.002% in PBS instilled into both eyes 6 times a day for 7 days, vs PBS control (0%))	Mean value of total scores (0.002% in PBS instilled into both eyes 6 times a day for 7 days, normal eye 3.1, PBS control 5.6)
CCCc1c(OCCCOc2cc(O)c(-c3ccc(F)cc3)cc2CC)cccc1Oc1ccccc1C(=O)[O-].[Na+] [Compound C, 2-[2-propyl-3-[3-[2-ethyl-4-(4-fluorophenyl)-5-hydroxyphenoxy]propoxy]phenoxy]sodium benzoate]	38.7	4.9	–	–
CO[C@@H](Cc1ccc(OCCCOc2ccc(Oc3ccccc3)cc2)cc1)C(=O)O [Compound D, 2(S)-methoxy-3-[4-[3-(4-phenoxyphenoxy)propoxy]phenyl] propionic acid]	–	–	12.0	5.3
Cc1oc(-c2ccccc2)nc1COc1ccc(CO/N=C(\CCC(=O)O)c2ccccc2)cc1 [Compound A, E-4-[4-(5-methyl-2-phenyl-4-oxazolylmethoxy)benzyloxyimino]-4-phenylbutyric acid]	32.3	5.1	–	–
Cc1oc(-c2ccccc2)nc1COc1ccc(CO/N=C(\C(=O)O)c2ccc(Oc3ccccc3)cc2)cc1 [Compound B, Z-2-[4-(5-methyl-2-phenyl-4-oxazolylmethoxy)benzyloxyimino]-2-(4-phenoxyphenyl) acetic acid]	32.3	5.1	–	–
